Values quoted from earlier work as cited in US5827682A, “Two-step conversion of vegetable protein isoflavone conjugates to aglucones” (Protein Technologies International, Inc., priority 1996, dated 1998).

Assays:
[1] = test system: human prostate cancer cells; settings: title of cited article
[2] = test system: Epidermal Growth Factor Receptor; settings: title of cited article
[3] = test system: human breast cancer cells; settings: title of cited article; independence from estrogen receptors and the multi-drug resistance gene

Row | SMILES | Inhibition of the growth of human prostate cancer cells [1] | Inhibition of epidermal growth factor receptor tyrosine autophosphorylation [2] | Inhibition of the growth of human breast cancer cells [3]
1 | COc1ccc(-c2coc3cc(O)cc(O)c3c2=O)cc1 [Biochanin A, biochanin A] | Inhibit the Growth of Human Prostate Cancer Cells | not Epidermal Growth Factor Receptor Tyrosine Autophosphorylation | 
2 | O=c1c(-c2ccc(O)cc2)coc2cc(O)cc(O)c12 [Genistein, genistein] | Inhibit the Growth of Human Prostate Cancer Cells | not Epidermal Growth Factor Receptor Tyrosine Autophosphorylation | Inhibition of the Growth of Human Breast Cancer Cells
